Where only a bound is given, the exact number is not on record here.

Type in all cases: biochemical
Assay [1] addresses WT IDH1 (Homo sapiens, UniProt O75874). The assay is described as follows: Wild-type IDH1 enzyme assay, NADPH production by diaphorase/resazurin coupled detection. As to conditions: 60 min preincubation with enzyme/NADP, 45 min reaction, room temperature. The protocol:
(§1) Compounds were tested against 3 enzymes WT IDH1, IDH1 R132C, IDH1 R132H
(§2) Assay Format: The production or depletion of NADPH by IDH enzymes was measured by diaphorase/resazurin coupled detection.
Reaction Procedure Wild-Type:
1. Deliver enzyme/NADP in the reaction buffer into wells of reaction plate except No Enzyme control wells. Add buffer+NADP into No Enzyme wells. 2. Deliver compound in 100% DMSO into the enzyme mixture. Spin down and preincubate for 60 min at room temperature. 3. Deliver Substrate mixture to initiate the reaction. Spin down plate and gently shake 45 minutes at room temperature.
4. Make a 3× mix of Detection mixture in the reaction buffer, and add detection mixture into the reaction. Spin down. 5. Incubate at room temperature for 10 minutes.
6. Measure in Envision. (Ex/Em=535/590 nm)
7. Subtract background (the average value of the No Enzyme control wells) from raw data. Average the DMSO control wells and set value as 100%. Take ratio of measured data/average DMSO control value times 100% to arrive at % activity.
For orientation: Alamar Blue is a resazurin reagent that responds to reducing activity.

Assay [2] has as its target IDH1 (R132C) (Homo sapiens, UniProt O75874, R132C). Description: IDH1 R132C enzyme assay, NADPH depletion by diaphorase/resazurin coupled detection. The following applies: 60 min preincubation with enzyme/NADPH, 45 min reaction, room temperature. The protocol: as §1, §2
(§3) Reaction Procedure Mutant:
(§4) 8. Deliver enzyme/NADPH in the reaction buffer into wells of reaction plate except No Enzyme control wells. Add buffer+NADPH into No Enzyme wells. 9. Deliver compound in 100% DMSO into the enzyme mixture. Spin down and preincubate for 60 min at room temperature. 10. Deliver Substrate mixture to initiate the reaction. Spin down plate and gently shake 45 minutes at room temperature.
(§5) Detection Step (the Same as Wt):
(§6) 11. Make a 3× mix of Detection mixture in the reaction buffer, and add detection mixture into the reaction. Spin down. 12. Incubate at room temperature for 10 minutes.
(§7) 13. Measure in Envision. (Ex/Em=535/590 nm)
(§8) 14. […] (the average value of the No Enzyme wells). Average the DMSO control wells and set value as 100%. Take ratio of measured data/average DMSO control value times 100% to arrive at % activity.

Assay [3] concerns the target IDH1 (R132H) (Homo sapiens, UniProt O75874, R132H). The assay is described as follows: IDH1 R132H enzyme assay, NADPH depletion by diaphorase/resazurin coupled detection. As to conditions: 60 min preincubation with enzyme/NADPH, 45 min reaction, room temperature. The protocol: as §1, §2, §3, §4, §5, §6, §7, §8

WT IDH1, sequence (O75874 whole entry): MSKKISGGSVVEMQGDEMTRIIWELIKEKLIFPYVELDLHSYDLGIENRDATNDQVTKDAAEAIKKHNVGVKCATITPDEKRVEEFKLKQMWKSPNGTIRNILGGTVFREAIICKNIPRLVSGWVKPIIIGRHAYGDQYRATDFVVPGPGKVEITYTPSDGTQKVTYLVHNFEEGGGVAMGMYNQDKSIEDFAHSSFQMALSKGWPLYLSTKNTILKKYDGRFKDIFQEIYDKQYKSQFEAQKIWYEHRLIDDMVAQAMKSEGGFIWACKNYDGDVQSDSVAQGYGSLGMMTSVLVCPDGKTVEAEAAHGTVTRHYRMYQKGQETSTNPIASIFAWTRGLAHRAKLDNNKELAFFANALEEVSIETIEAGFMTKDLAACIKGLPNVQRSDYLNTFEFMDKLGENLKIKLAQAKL
IDH1 (R132C), sequence (O75874 whole entry R132C): as the sequence (O75874 whole entry) above, with R132C counted along it
IDH1 (R132H), sequence (O75874 whole entry R132H): as the sequence (O75874 whole entry) above, with R132H counted along it

In general, IC50 refers to the concentration at which inhibition is half-maximal. Higher therefore signals lower potency. For the compound `C=CC(=O)N1CCN(Cc2ccc([C@H](C)Nc3nccc(N4C(=O)OC[C@@H]4C(C)C)n3)cc2)CC1` [IS01, (S)-3-(2-(((S)-1-(4-((4-acryloylpiperazin-1-yl)methyl)phenyl)ethyl)amino)pyrimidin-4-yl)-4-isopropyloxazolidin-2-one], the IC50 in assay [1] is 9460 nM; in assay [2] it was 1.61 nM; in assay [3], 1.32 nM.
In the same order, the values of `C=CC(=O)Nc1ccc(Nc2ccc([C@H](C)Nc3nccc(N4C(=O)OC[C@@H]4C(C)C)n3)cc2)nc1` [IS03, N-(6-((4-((S)-1-((4-((S)-4-isopropyl-2-oxooxazolidin-3-yl)pyrimidin-2-yl)amino)ethyl)phenyl)amino)pyridin-3-yl)acrylamide] are 8520 nM, 3.35 nM and 3.61 nM.
In the same order, the values of `C=CC(=O)Nc1ccc(Nc2ccc([C@H](C)Nc3nccc(N4C(=O)OC[C@@H]4C(C)C)n3)cc2)cc1` [IS04, N-(4-((4-((S)-1-((4-((S)-4-isopropyl-2-oxooxazolidin-3-yl)pyrimidin-2-yl)amino)ethyl)phenyl)amino)phenyl)acrylamide] are more than 10000 nM, 7.55 nM and 10.5 nM.
As to `C=CC(=O)Nc1cccc(Nc2ccc([C@H](C)Nc3nccc(N4C(=O)OC[C@@H]4C(C)C)n3)cc2)c1` [IS05, N-(3-((4-((S)-1-((4-((S)-4-isopropyl-2-oxooxazolidin-3-yl)pyrimidin-2-yl)amino)ethyl)phenyl)amino)phenyl)acrylamide], the IC50 in assay [1] is more than 1480 nM; in assay [2] it was 4.67 nM.
`C=CC(=O)N1CCC(Oc2ccc(C(C)Nc3nccc(N4C(=O)OC[C@@H]4C(C)C)n3)cn2)CC1` (stereo partly drawn) [IS07, (4S)-3-(2-((1-(6-((1-acryloylpiperidin-4-yl)oxy)pyridin-3-yl)ethyl)amino)pyrimidin-4-yl)-4-isopropyloxazolidin-2-one] yielded an IC50 in assay [3] of 340 nM.
Regarding `C=CC(=O)Nc1ccc(N(C)c2cnc(C(C)Nc3nccc(N4C(=O)OC[C@@H]4C(C)C)n3)nc2)cc1` (stereo partly drawn) [IS012, N-(4-((2-(1-((4-((S)-4-isopropyl-2-oxooxazolidin-3-yl)pyrimidin-2-yl)amino)ethyl)pyrimidin-5-yl)(methyl)amino)phenyl)acrylamide], the IC50 in assay [2] stood at 198 nM; in assay [3], 161 nM.
In the same order, the values of `C=CC(=O)Nc1cccc(-c2cnc(C(C)Nc3nccc(N4C(=O)OC[C@@H]4C(C)C)n3)nc2)c1` (stereo partly drawn) [IS013, N-(3-(2-(1-((4-((S)-4-isopropyl-2-oxooxazolidin-3-yl)pyrimidin-2-yl)amino)ethyl)pyrimidin-5-yl)phenyl)acrylamide] are 285 nM and 107 nM.
`C=CC(=O)N1CCN(Cc2ccc([C@H](C)Nc3nc(N4C(=O)OC[C@@H]4C(C)C)c4sccc4n3)cc2)CC1` [IS014, (S)-3-(2-(((S)-1-(4-((4-acryloylpiperazin-1-yl)methyl)phenyl)ethyl)amino)thieno [3,2-d]pyrimidin-4-yl)-4-isopropyloxazolidin-2-one] yielded a half-inhibitory concentration (IC50) in assay [2] of 2.61 nM.

The values above are taken from patent publication US20210403460A1, “INHIBITORS OF MUTANT ISOCITRATE DEHYDROGENASES AND COMPOSITIONS AND METHODS THEREOF” (IsoCure Biosciences Inc., priority 2016, published 2021).
